# Experimental data from US20010004643A1, “Pharmaceutical composition with sotalol combination and their use in treatment of cardiac ailments” (priority 1999, published 2001).
# “Also recorded” adds a separate entry of the source. Marks after values point to notes of the source that are not given here.
# Key:
# [1] = test system: ouabain induced arrhythmia (VT, VF, mortality); experiment: Ouabain induced arrhythmia model in guinea pig; assay type: in vivo; details: for actual incidence of mortality (value in parenthesis): 60 min; for actual incidence of mortality (value in parenthesis) / actual incidence of VF (value in parenthesis) / actual incidence of VT (value in parenthesis): number of animals of the group; for % INCIDENCE OF MORTALITY: mortality at 60 min; for deaths due to conduction block (60 min), actual incidence (value in parenthesis) / deaths due to tachyarrhythmia (60 min), actual incidence (value in parenthesis): number of animals; for % INCIDENCE OF VF / % INCIDENCE OF VT: ouabain 240 μg/kg in three doses, observed one hour; for DEATHS DUE TO CONDUCTION BLOCK (60 MIN) Percentage / DEATHS DUE TO TACHYARRHYTHMIA (60 MIN) Percentage: percentage deaths out of total mortality
# Text: Method: Guinea pigs (Dunken Hartley) of either sex weighing between 400 and 500 g were used for the study. The animals were anesthetized with urethane (1.25 g/kg. i.p.). The left common carotid artery and left jugular vein were cannulated for arterial blood pressure monitoring and intravenous access respectively. Lead II electrocardiogram, arterial blood pressure, mean arterial blood pressure (MABP), heart rate were monitored throughout the experiment.
# After initial surgical preparations and allowing 30 minutes for the animal to stabilise the first dose of ouabain (90 μg/kg) was administered over a period of one minute. After the interval of thirty minutes, second dose of ouabain (60 μg/kg) was administered over a period of one minute. One minute after this dose, 0.5 ml saline (in control experiments) was administered over a period of one minute. After an interval of 10 minutes a third dose of ouabain (90 μg/kg) was administered over a period of one minute. […] The test compounds were administered to animals in test group in place of saline to evaluate their antiarrhythmic potential. From the ECG recordings, the incidence of VT, VF and mortality were recorded. The doses of ratios of sotalol isomers studied were 0.1, 0.5 and 2.5 mg/kg.
# Interpretation of ECG recordings: Minor disturbance in rhythm was not considered while evaluating ventricular tachyarrhythmias. A run of more than 3 ventricular ectopic beats having wide QRS complexes associated with partial haemodynamic collapse was considered as Ventricular Tachycardia (VT). Total morphological irregularity of repetitive complexes for at least six cycles associated with complete haemodynamic collapse was considered as Ventricular Fibrillation (VF). Successful arrhythmia protection was defined as no occurrence of VT and VF from the injection of saline/test drug till the end of the experiment.
# Statistics: Chi square test with continuity correction at 95% confidence limit was applied to find out the statistical significance between control and test groups for incidence of VT, VF and mortality. Whenever, any of the value in a cell was less than 5, Fischer's exact probability test was used.
# Results: Different ratios of sotalol in the dose range from 0.02 mg/kg to 12.5 mg/kg were studied in individual groups of animals. In all 18 groups were studied and at least 6 animals were used in each group. In control animals ouabain 240 μg/kg in three divided doses induced reproducible ventricular tachyarrhythmias in guinea pigs. It was observed that ventricular arrhythmias appeared after the administration of the third dose. Guinea pigs which responded early i.e. before or within 1 min. of administration of the second dose, were considered early responders and were not included in the study. […] In the study, control experiments were carried out randomly interspersed in test groups. Among the 42 control animals the incidence of VT was 81%, incidence of VF was 71.4% and the incidence of mortality at 60 minutes was 61.9%.
# [2] = test system: beta adrenergic blockade, isolated right auricle preparation of rabbit; experiment: Beta blocking potency (pA2 against isoprenaline) in isolated rabbit right auricle; details: isoprenaline chronotropic response, Schild's plot
# Protocol: Estimation of the beta blockade of various ratios of d- and l- isomers of sotalol was carried out in the isolated right auricle preparation of rabbit. The spontaneously beating right atrium was dissected and mounted in a 20 ml tissue bath. The resting tension on the atria was set at 1 g. The contractions were recorded using a force displacement transducer. The spontaneous contractions of the right atria were recorded isometrically and the heart rate was obtained as a derived parameter using a ratemeter that gave the output in beats per minute. Six different ratios of d and l isomers were investigated (1:1, 2:1, 3:1, 4:1, 5:1 and 1:0). Dose-response-curves (DRC) for isoprenaline in the isolated atria, using the chronotropic response were determined by cumulative addition of isoprenaline. The pA2 values of each of the ratios were estimated using the classical Schild's plot (Schild, 1957) and the values are shown in Table 1.
# [3] = guinea pig, in vivo, listed as 2.5:1 ratio (d:l)
compound,measurement,setting,value
"CC(C)NCC(O)c1ccc(NS(C)(=O)=O)cc1 (centres unmarked) [2.5:1 RATIO, N-[4-[1-hydroxy-2-[(1-methylethyl)amino]ethyl]phenyl] methane sulfonamide]",mortality compared to 2:1 ratio at the same dose,[1]; 0.5 mg/kg,lower
same,protection against VF,[1]; 0.5 mg/kg,"some protection, it was not complete"
same,actual incidence of mortality (value in parenthesis),[1]; 0.5 mg/kg,(2)
same,protection against ouabain induced VT,"[1]; 0.5 mg/kg, listed as 2.5:1 ratio (d:l)",protection was not complete
same,% INCIDENCE OF MORTALITY,[1]; 0.5 mg/kg,33.3%
same,"deaths due to conduction block (60 min), actual incidence (value in parenthesis)",[1]; 0.5 mg/kg,(2)
same,"deaths due to tachyarrhythmia (60 min), actual incidence (value in parenthesis)",[1]; 0.5 mg/kg,(0)
same,actual incidence of VF (value in parenthesis),[1]; 0.5 mg/kg,(2)
same,actual incidence of VT (value in parenthesis),[1]; 0.5 mg/kg,(2)*
same,% INCIDENCE OF VF,[1]; 0.5 mg/kg,33.3%
same,% INCIDENCE OF VT,[1]; 0.5 mg/kg,33.3%
same,DEATHS DUE TO CONDUCTION BLOCK (60 MIN) Percentage,[1]; 0.5 mg/kg,100.0%
same,DEATHS DUE TO TACHYARRHYTHMIA (60 MIN) Percentage,[1]; 0.5 mg/kg,00.0%
same,protection against mortality,[1]; 2.5 mg/kg,protected significantly
same,protection from deaths due to tachyarrhythmias,[1]; 2.5 mg/kg,completely protected
same,protection against arrhythmias (VT and VF),"[1]; 2.5 mg/kg, listed as 2.5:1",completely protects; also recorded: complete protection
same,% INCIDENCE OF MORTALITY,[1]; 2.5 mg/kg,16.6%
same,% INCIDENCE OF MORTALITY,"[1]; 2.5 mg/kg, listed as 2.5:1",16.6%
same,"deaths due to conduction block (60 min), actual incidence (value in parenthesis)",[1]; 2.5 mg/kg,(1)
same,"deaths due to tachyarrhythmia (60 min), actual incidence (value in parenthesis)",[1]; 2.5 mg/kg,(0)
same,actual incidence of VF (value in parenthesis),[1]; 2.5 mg/kg,(0)*
same,actual incidence of VT (value in parenthesis),[1]; 2.5 mg/kg,(0)*
same,% INCIDENCE OF VF,[1]; 2.5 mg/kg,0.0%
same,% INCIDENCE OF VT,[1]; 2.5 mg/kg,0.0%
same,DEATHS DUE TO CONDUCTION BLOCK (60 MIN) Percentage,[1]; 2.5 mg/kg,100.0%
same,DEATHS DUE TO TACHYARRHYTHMIA (60 MIN) Percentage,[1]; 2.5 mg/kg,00.0%
same,dose at which complete protection against VT was observed,[1]; [3],2.5 mg/kg
same,dose that completely protected against VF,[1]; [3],2.5 mg/kg
same,cause of deaths,[1]; no dose stated,due to conduction abnormalities
same,mortality compared with control groups,[1]; no dose stated,less than that of control groups
"CC(C)NCC(O)c1ccc(NS(C)(=O)=O)cc1 (racemic) [dl-SOTALOL, N-[4-[1-hydroxy-2-[(1-methylethyl)amino]ethyl]phenyl] methane sulfonamide]",% INCIDENCE OF MORTALITY,[1]; 0.02 mg/kg,16.6%
same,"deaths due to conduction block (60 min), actual incidence (value in parenthesis)",[1]; 0.02 mg/kg,(0)
same,"deaths due to tachyarrhythmia (60 min), actual incidence (value in parenthesis)",[1]; 0.02 mg/kg,(1)
same,actual incidence of VF (value in parenthesis),[1]; 0.02 mg/kg,(5)
same,actual incidence of VT (value in parenthesis),[1]; 0.02 mg/kg,(5)
same,% INCIDENCE OF VF,[1]; 0.02 mg/kg,83.3%
same,% INCIDENCE OF VT,[1]; 0.02 mg/kg,83.3%
same,DEATHS DUE TO CONDUCTION BLOCK (60 MIN) Percentage,[1]; 0.02 mg/kg,00.0%
same,DEATHS DUE TO TACHYARRHYTHMIA (60 MIN) Percentage,[1]; 0.02 mg/kg,100.0%
same,actual incidence of mortality (value in parenthesis),[1]; 0.1 mg/kg,(2)
same,% INCIDENCE OF MORTALITY,[1]; 0.1 mg/kg,33.3%
same,"deaths due to conduction block (60 min), actual incidence (value in parenthesis)",[1]; 0.1 mg/kg,(1)
same,"deaths due to tachyarrhythmia (60 min), actual incidence (value in parenthesis)",[1]; 0.1 mg/kg,(1)
same,actual incidence of VF (value in parenthesis),[1]; 0.1 mg/kg,(2)
same,actual incidence of VT (value in parenthesis),[1]; 0.1 mg/kg,(2)*
same,% INCIDENCE OF VF,[1]; 0.1 mg/kg,33.3%
same,% INCIDENCE OF VT,[1]; 0.1 mg/kg,33.3%
same,DEATHS DUE TO CONDUCTION BLOCK (60 MIN) Percentage,[1]; 0.1 mg/kg,50.0%
same,DEATHS DUE TO TACHYARRHYTHMIA (60 MIN) Percentage,[1]; 0.1 mg/kg,50.0%
same,actual incidence of mortality (value in parenthesis),[1]; 0.5 mg/kg,(3)
same,% INCIDENCE OF MORTALITY,[1]; 0.5 mg/kg,50.0%
same,"deaths due to conduction block (60 min), actual incidence (value in parenthesis)",[1]; 0.5 mg/kg,(3)
same,"deaths due to tachyarrhythmia (60 min), actual incidence (value in parenthesis)",[1]; 0.5 mg/kg,(0)
same,actual incidence of VF (value in parenthesis),[1]; 0.5 mg/kg,(2)
same,actual incidence of VT (value in parenthesis),[1]; 0.5 mg/kg,(2)*
same,% INCIDENCE OF VF,[1]; 0.5 mg/kg,33.3%
same,% INCIDENCE OF VT,[1]; 0.5 mg/kg,33.3%
same,DEATHS DUE TO CONDUCTION BLOCK (60 MIN) Percentage,[1]; 0.5 mg/kg,100.0%
same,DEATHS DUE TO TACHYARRHYTHMIA (60 MIN) Percentage,[1]; 0.5 mg/kg,00.0%
same,protection against mortality,[1]; 2.5 mg/kg,no protection
same,protection from deaths due to tachyarrhythmias,[1]; 2.5 mg/kg,completely protected
same,actual incidence of mortality (value in parenthesis),[1]; 2.5 mg/kg,(6)
same,% INCIDENCE OF MORTALITY,[1]; 2.5 mg/kg,60.0%
same,% INCIDENCE OF MORTALITY,"[1]; 2.5 mg/kg, listed as d:l sotalol (ratio 1:1)",60%
same,"deaths due to conduction block (60 min), actual incidence (value in parenthesis)",[1]; 2.5 mg/kg,(6)
same,"deaths due to tachyarrhythmia (60 min), actual incidence (value in parenthesis)",[1]; 2.5 mg/kg,(0)*
same,actual incidence of VF (value in parenthesis),[1]; 2.5 mg/kg,(0)*
same,actual incidence of VT (value in parenthesis),[1]; 2.5 mg/kg,(0)*
same,% INCIDENCE OF VF,[1]; 2.5 mg/kg,00.0%
same,% INCIDENCE OF VT,[1]; 2.5 mg/kg,00.0%
same,DEATHS DUE TO CONDUCTION BLOCK (60 MIN) Percentage,[1]; 2.5 mg/kg,100.0%
same,DEATHS DUE TO TACHYARRHYTHMIA (60 MIN) Percentage,[1]; 2.5 mg/kg,00.0%
same,protection against ouabain induced VT,"[1]; 0.1, 0.5 and 2.5 mg/kg dose",able to protect
same,protection against VF,[1]; 0.1 and 0.5 mg/kg doses,some protection
same,cause of deaths,[1]; as the dose was increased,entirely due to conduction abnormalities
same,dose at which complete protection against VT was observed,"[1]; guinea pig, in vivo",2.5 mg/kg
same,dose that completely protected against VF,"[1]; guinea pig, in vivo",2.5 mg/kg
same,minimum protective dose against ouabain induced VT,"[1]; guinea pig, in vivo",0.1 mg/kg
same,cause of deaths,[1]; lower doses,due to tachyarrhythmias
same,protection against mortality,[1]; lower doses,reduced mortality
same,deaths due to conduction block increased,[1]; no dose stated,increased
same,pA2 Mean,[2],6.48
"CC(C)NCC(O)c1ccc(NS(C)(=O)=O)cc1 (centres unmarked) [5:1, N-[4-[1-hydroxy-2-[(1-methylethyl)amino]ethyl]phenyl] methane sulfonamide]",pA2 Mean,[2],5.85
